This assay has as its system C57BL/KsJ-db/db mice. Kind of assay: Blood sugar and triglycerides lowering activity in db/db mice (in vivo). To be noted: for Reduction in Blood Glucose Level (%) / Triglyceride Lowering (%): oral gavage daily, male db/db mice; for Reduction in Blood Glucose Level (%): plasma glucose; for Triglyceride Lowering (%): plasma triglyceride. An excerpt: Mutation in colonies of laboratory animals and different sensitivities to dietary regimens have made the development of animal models with non-insulin dependent diabetes associated with obesity and insulin resistance possible. Genetic models such as db/db and ob/ob (See Diabetes. (1982) 31(1): 1-6) in mice and fa/fa and zucker rats have been developed by the various laboratories for understanding the pathophysiology of disease and testing the efficacy of new antidiabetic compounds (Diabetes, (1983)32: 830-838; Annu. Rep. Sankyo Res. Lab. (1994). 46: 1-57). The homozygous animals, C57 BL/KsJ-db/db mice developed by Jackson Laboratory, US, are obese, hyperglycemic, hyperinsulinemic and insulin resistant (J. Clin. Invest., (1990) 85: 962-967), whereas heterozygous are lean and normoglycemic. In db/db model mouse progressively develops insulinopenia with age, a feature commonly observed in late stages of human type II diabetes when blood sugar levels are insufficiently controlled. The state of pancreas and its course vary according to the models. Since this model resembles that of type II diabetes mellitus, the compounds of the present invention were tested for blood sugar and triglycerides lowering activities.
Male C57BL/KsJ-db/db mice of 8 to 14 weeks age, having body weight range of 35 to 60 grams, procured from the Jackson Laboratory, USA, were used in the experiment. The mice were provided with standard feed (National Institute of Nutrition, Hyderabad, India) and acidified water, ad libitum. The animals having more than 300 mg/dl blood sugar were used for testing. The number of animals in each group was 4.
The random blood sugar ad triglyceride levels were measured by collecting blood (100 µl) through orbital sinus, using heparinized capillary in tubes containing EDTA which was centrifuged to obtain plasma. The plasma glucose and triglyceride levels were measured through spectrometrically, by glucose oxidase and glycerol-3-PO4 oxidase/peroxidase enzyme (Dr. Reddy's Lab. Diagnostic Division Kits, Hyderabad, India) methods respectively. On 6th day the blood samples were collected one hour after administration of test compounds/vehicle for assessing the biological activity.
Test compounds were suspended on 0.25 % carboxymethyl cellulose and administered to test group at a dose of 30 mg to 200 mg/kg through oral gavage daily for 6 to 9 days. The control group received vehicle (dose 10 ml/kg).
The blood sugar and triglycerides lowering activities of the test compound was calculated according to the formula: Blood sugar / triglycerides lowering activity (%) = 1 -(DT/DC)/(TC/ZC)X 100 [formula] • ZC = Zero day control group value • DC = Zero day treated group value • TC = Control group value on test day • DT = Treated group value on the test day

Setting [1] is: dose 200 mg/kg, treated for nine days.

Consider `O=C1NC(=O)C(=Cc2ccc(OC3CCN(C(=O)OCc4ccccc4)CC3)cc2)S1` [Example 1, 5-[4-[1(Benzyloxycarbonyl)piperidin-4-yloxy]phenylmethylene]thiazolidine-2,4-dione], for which the “Reduction in Blood Glucose Level (%)” value by setting is: (dose 30 mg/kg) 47%; (dose 100 mg/kg) 59%; under setting [1], 62%. The “Triglyceride Lowering (%)” value (dose 100 mg/kg) worked out at 29% and the “Triglyceride Lowering (%)” value under setting [1] was determined as 70%.
`O=C1NC(=O)C(=Cc2ccc(OCC3CCN(C(=O)OCc4ccccc4)CC3)cc2)S1` [Example 3, 5-[4-[1-(Benzyloxycarbonyl)piperidin-4-ylmethoxy]phenylmethylene] thiazolidine-2,4-dione]: under “dose 100 mg/kg”, the “Reduction in Blood Glucose Level (%)” value was determined as 35% and the “Triglyceride Lowering (%)” value is listed as 56%.
Regarding `O=C1NC(=O)C(=Cc2ccc(OC[C@@H]3CCCN3C(=O)OCc3ccccc3)cc2)S1` [Example 5, 5-[4-[1-(Benzyloxycarbonyl)-(2S)-pyrrolidin-2-ylmethoxy]phenylmethylene]thiazolidine-2,4-dione], for the setting “dose 30 mg/kg”, the “Reduction in Blood Glucose Level (%)” value turned out to be 30% and the “Triglyceride Lowering (%)” value is on record as 5%.
For the compound `O=C1NC(=O)C(=Cc2ccc(OC3CCN(C(=O)NCc4ccccc4)CC3)cc2)S1` [Example 10, 5-[4-[1-(Benzylaminocarbonyl)piperidin-4-yloxy]phenylmethylene]thiazolidine-2,4-dione], where the note is “dose 30 mg/kg”, the “Reduction in Blood Glucose Level (%)” value turned out to be 37% and the “Triglyceride Lowering (%)” value is 6%.
For the compound `Cc1c(C)c2c(c(C)c1O)CCC(C)(COc1ccc(CC3SC(=O)NC3=O)cc1)O2` (stereo not drawn) [Troglitazone, reference compound], the “reduction in random blood sugar level” value (100 mg/kg, daily dose, on 6th day, standard drug, db/db mice) was 28%.

(Values after patent EP0981526B1, “NOVEL ANTIDIABETIC COMPOUNDS HAVING HYPOLIPIDAEMIC, ANTIHYPERTENSIVE PROPERTIES, PROCESS FOR THEIR PREPARATION AND PHARMACEUTICAL COMPOSITIONS CONTAINING THEM” (Dr. Reddy's Laboratories Ltd., priority 1997, dated 1997).)
